Results as given in publication PMC4811560, “Kinetic Characterisation of a Single Chain Antibody against the Hormone Abscisic Acid: Comparison with Its Parental Monoclonal” (PLoS ONE, 2016).
Read-outs that look alike come from different tables or passages of the source. Marks after values point to notes of the source that are not given here.

How the values were obtained:
[1] = no reference given; cited from earlier work
MBP-antiABA-scFv = assay: SPR affinity in solution (competitive titration) of test compounds for the scFv; assay type: binding, mouse; details: for Cross-reactivity MBP-aABA-scFv: from KA relative to (+)-ABA = 100%; for Affinity in solution, MBP-aABA-scFv, KA / Kd: scFv 25 nM, 1 hour at 25°C; for Kd: read-out: Affinity in solution, MBP-aABA-scFv, KD
Method: All heterogeneous phase (surface) techniques can be subject to artefacts introduced by ligand immobilisation or e.g. biotinylation of the free ligand. […] The equilibrium mixtures (1 hour at 25°C) were injected over an SA chip surface saturated with b-PEG-ABA at high ligand density, and the initial binding rate of free scFv was measured. The concentration of free scFv from each equilibrium mixture was determined from a calibration curve (S6A Fig) and plotted against the concentration of free (+)-ABA. Data points were fitted to the solution affinity model in BIAevaluation (S5B Fig). […] Thus, the kinetics of the fusion protein have been described with confidence. Next these were compared with the characteristics of both cleaved, free scFv and with the parental monoclonal immunoglobulin.
The selectivity of the scFv for (+)-ABA was tested by determining the affinity in solution for structurally or physiologically related compounds. […] The concentration of free scFv in the equilibrium mixtures was determined and plotted against concentration of competitor. Affinity was determined by fitting the data points to a solution affinity model (Fig 4). The KA value was determined for each compound, and then percentage cross-reactivity was calculated by expressing each KA value relative to the KA for (+)-ABA. Values were compared to literature data for the parental monoclonal antibody (Table 3).
Fig 4 Cross-reactivity of the anti-ABA-scFv. […] The concentration of free scFv in the equilibrium mixtures was plotted against the concentration of test compound. The structures of each competitor are shown framed in the same colours as the data in the dose graph. There is no box for the racemic mix. The colour code for each compound is shown on the left of the plot.
Figure S6. Affinity in solution. (a) A calibration curve was generated by injecting known concentrations of free MBP-antiABA-scFv (0.1 nM – 50 nM) over the surface of a SA sensor chip saturated with b -PEG-ABA, plotting the initial binding rate against concentration and fitting the data points to a 4 -parameter equation. (b) MBP- […]
1 nM, 5 nM, 10 nM, 50 nM, 100 nM, 200 nM, 500 nM), and the mixtures incubated to equilibrium (1 hour at 25°C). The concentration of free MBP -antiABA-scFv in the equilibrium mixtures was then determined from the calibration curve. The concentration of free MBP -antiABA-scFv in the equilibrium mixtures was plotted against (+)-ABA concentration and the data points were fitted to a solution affinity […]
(1 picture or pasted object on this page, not shown here)

mAb 15-I-C5 = details: cited from earlier work
[2] = radiolabel displacement curves, 50% displacement, ref Phytodetek manual m100.2, Agdia Inc.
[3] = radiolabel displacement curves, 50% displacement, ref Walker-Simmons et al., 1991

| SMILES | Kd (MBP-antiABA-scFv) | Cross-reactivity MBP-aABA-scFv (MBP-antiABA-scFv) | Affinity in solution, MBP-aABA-scFv, KA (MBP-antiABA-scFv) | Cross-reactivity mAb 15-I-C5 (mAb 15-I-C5; [2]) | also measured |
| --- | --- | --- | --- | --- | --- |
| CC1=CC(=O)CC(C)(C)C1(O)/C=C/C(C)=C\C(=O)O (centres unmarked) [ABA, abscisic acid] | – | – | – | – | pKa [1]: 4.75 |
| CC(C)=CCC/C(C)=C/CC/C(C)=C/CO [All-trans-Farnesol] | 17100 µM | 0.00002% | 58.4 M⁻¹ | 0 ^c % | Cross-reactivity MBP-aABA-scFv (MBP-antiABA-scFv; listed as farnesol): lower than 10^−4% |
| CC1=CC(=O)CC(C)(C)[C@@]1(O)/C=C/C(C)=C/C(=O)O [2-trans-(S)-(+)-ABA] | – | – | – | 0% | Cross-reactivity mAb 15-I-C5 (mAb 15-I-C5; [3]): 0.98% |
| CC1=CC(=O)CC(C)(C)[C@@]1(O)/C=C/C(C)=C\C(=O)O [2-cis-(S)-(+)-ABA] | 0.00337 µM | 100% | 2.96e+08 M⁻¹ | – | affinity relative to the inactive (-)-ABA (MBP-antiABA-scFv; scFv): three orders of magnitude higher; Cross-reactivity mAb 15-I-C5 (mAb 15-I-C5; reference value, determined by other investigators, no source marked): 100% |
| CC(C=CC1(O)C(C)=CC(=O)CC1(C)C)=CC(=O)O (racemic) [2-cis-(R,S)-(±)-ABA] | 0.00761 µM | 44.25% | 1.31e+08 M⁻¹ | – | Cross-reactivity MBP-aABA-scFv (MBP-antiABA-scFv; listed as (±)-ABA): 44.3%; Cross-reactivity mAb 15-I-C5 (mAb 15-I-C5; [3]): 49.4 ^d % |
| CC(C=CC1C(C)=CC(=O)CC1(C)C)=CC(=O)O (mixture of isomers) [2-cis-(R,S)-(±)-1’-deoxy-ABA] | 1.09 µM | 0.309% | 917000 M⁻¹ | – | Cross-reactivity MBP-aABA-scFv (MBP-antiABA-scFv; listed as 1ʹ-deoxy-ABA): 0.3%; affinity, fold lower than that for (+)-ABA (MBP-antiABA-scFv; scFv): over 100 fold |
| O=C(O)c1ccccc1 [Benzoic acid] | 10900 µM | 0.00003% | 91.7 M⁻¹ | – | Cross-reactivity MBP-aABA-scFv (MBP-antiABA-scFv; listed as benzoic acid): lower than 10^−4% |
| NCCCCC(N)C(=O)O (racemic) [D,L-Lysine] | 6120 µM | 0.00006% | 163 M⁻¹ | – | Cross-reactivity MBP-aABA-scFv (MBP-antiABA-scFv; listed as lysine): lower than 10^−4% |

Second part, led by results:

| Kd (MBP-antiABA-scFv) | SMILES | Cross-reactivity MBP-aABA-scFv (MBP-antiABA-scFv) | Affinity in solution, MBP-aABA-scFv, KA (MBP-antiABA-scFv) | Cross-reactivity mAb 15-I-C5 (mAb 15-I-C5; [2]) | also measured |
| --- | --- | --- | --- | --- | --- |
| 11.3 µM | CC(=C/C(=O)O)/C=C/[C@]1(O)[C@@]2(C)CO[C@]1(C)CC(=O)C2 [Phaseic acid] | 0.029% | 88200 M⁻¹ | <0.1 ^c % | Cross-reactivity MBP-aABA-scFv (MBP-antiABA-scFv; listed as phaseic acid): 0.03%; affinity, fold lower than that for (+)-ABA (MBP-antiABA-scFv; scFv): over 100 fold |
| 1620 µM | CC(C=CC12OC1(C)CC(O)CC2(C)C)=CC=O (centres unmarked) [Xanthoxin] | 0.0002% | 617 M⁻¹ | 0 ^c % | Cross-reactivity MBP-aABA-scFv (MBP-antiABA-scFv; listed as xanthoxin): lower than 10^−4% |
| 32800 µM | C=C1C[C@]23C[C@@]1(O)CC[C@H]2[C@@]12C=C[C@H](O)[C@@](C)(C(=O)O1)[C@H]2[C@@H]3C(=O)O [Gibberellic acid] | 0.00001% | 30.4 M⁻¹ | – | Cross-reactivity MBP-aABA-scFv (MBP-antiABA-scFv; listed as gibberellic acid): lower than 10^−4% |
| 7230 µM | O=C(O)Cc1c[nH]c2ccccc12 [Indole-3-acetic acid] | 0.00005% | 138 M⁻¹ | – | Cross-reactivity MBP-aABA-scFv (MBP-antiABA-scFv; listed as auxin): lower than 10^−4% |
| 2.17 µM | CC(C=CC1(O)C2(C)COC1(C)CC(O)C2)=CC(=O)O (centres unmarked) [Dihydrophaseic acid] | 0.156% | 462000 M⁻¹ | <0.1 ^c % | Cross-reactivity MBP-aABA-scFv (MBP-antiABA-scFv; listed as dihydrophaseic acid): 0.16%; affinity, fold lower than that for (+)-ABA (MBP-antiABA-scFv; scFv): over 100 fold |
